# Assay results taken from patent publication US7214696B2, “Compositions and methods for stabilizing transthyretin and inhibiting transthyretin misfolding” (The Scripps Research Institute, priority 2002, dated 2007).
# Read-outs that look alike come from different tables or passages of the source.
# Experiments:
# [1] = target: T1, TTR in human blood plasma (Homo sapiens, UniProt P02766); assay: Immunoprecipitation/HPLC binding stoichiometry of PCBs and OH-PCBs in plasma, Example 4; design: from tissue; host or cells: human blood plasma from healthy volunteers; details: OH-PCB 10.8 μM in human blood plasma; post-wash lower limit
# Procedure: After washing, the PCB or OH-PCB binding stoichiometry to TTR (≈5 μM) was evaluated by reverse phase HPLC.
# A 2 mL eppendorf tube was filled with 1.5 mL of human blood plasma and 7.5 μL of a 2.16 mM DMSO solution of the PCB under evaluation. This solution was incubated at 37° C. for 24 h. A 1:1 resin/TSA slurry (187 μL) of quenched Sepharose was added to the solution and gently rocked at 4° C. for 1 h. The solution was centrifuged (16,000×g) and the supernatant divided into 3 aliquots of 400 μL each. These were each added to 200 μL of a 1:1 resin/TSA slurry of the anti-transthyretin antibody-conjugated Sepharose and slowly rocked at 4° C. for 20 min. The samples were centrifuged (16,000×g) and the supernatant removed. The resin was washed with 1 mL TSA/0.05% Saponin (Acros) (3×10 min) at 4° C., and additionally with 1 mL TSA (2×10 min) at 4° C. […]
# The supernatant elution samples from the TTR antibody beads (145 μL) were loaded onto a Waters 71P autosampler. […] Detection was accomplished at 280 nm with a Waters 486 tunable absorbance detector, and the peaks were integrated to give the area of both TTR and the small molecule. In order to determine the quantity of each species, known amounts of tetrameric TTR or PCB were injected onto the HPLC. […] The ratio of small molecule to protein was calculated to yield the stoichiometry of small molecule bound to TTR in plasma.
# WT TTR [2] = target: T2, WT TTR (Homo sapiens, UniProt P02766); assay: Transthyretin amyloid fibril formation assay (pH 4.4, 72 h, OD 400 nm), Example 4; assay type: biochemical; details: equimolar inhibitor and TTR concentration (3.6 μM)
# Procedure: TTR secreted into blood from the liver appears to be the source of systemic TTR amyloid. While it is not yet clear where or how amyloid is formed in humans, the typical denaturant in cells is acid, which is effective in converting nearly all amyloidogenic peptides and proteins into amyloid and/or related aggregates. […] Hydroxylated PCBs and PCB 3 were highly efficacious as TTR fibril inhibitors. At an inhibitor concentration equal to the WT TTR concentration (3.6 μM), only 12–50% of the normal amount of fibril formation was observed after a 72 h incubation period.
# The compounds were dissolved in DMSO at a concentration of 720 μM. Five μL of a solution of the compound being evaluated was added to 0.5 mL of a 7.2 μM TTR solution in 10 mM phosphate pH 7.6, 100 mM KCl, 1 mM EDTA buffer, allowing the compound to incubate with TTR for 30 min. 495 μL of […] acetate pH 4.2, 100 mM KCl, 1 mM EDTA was added, to yield final protein and inhibitor concentrations of 3.6 μM each and a pH of 4.4. The mixture was then incubated at 37° C. for 72 h, after which the tubes were vortexed for 3 sec and the optical density was measured at 400 nm. The extent of fibril formation was determined by normalizing each optical density by that of TTR without inhibitor, defined to be 100% fibril formation. Control solutions of each compound in the absence of TTR were also tested and none absorbed appreciably at 400 nm.
# [3] = target: T1, TTR in human blood plasma; assay type: binding; design: from tissue; host or cells: human blood plasma from healthy volunteers; details: test compound 10.8 μM, 24 h, 37° C.
# Procedure: Human blood plasma (TTR conc. 3.6–5.4 μM) was incubated for 24 h with the test compound (10.8 μM) at 37° C. The TTR and any bound inhibitor were immunoprecipitated using a sepharose-bound polyclonal TTR antibody. The TTR with or without inhibitor bound was liberated from the resin at high pH, and the inhibitor:TTR stoichiometry was ascertained by HPLC analysis (FIG. 8).
# TTR tetramer = TTR tetramer (Homo sapiens, UniProt P02766); assay: Tetramer dissociation in 6 M urea, Example 4; assay type: biochemical
# From the text: In addition to their high binding selectivity to plasma TTR, the OH-PCBs and PCB 3 also display excellent inhibition of TTR fibril formation in vitro. […] This is likely attributable to their high binding affinity (also consistent with their low off rate) and their non- or positively cooperative TTR binding properties which are unusual. […] Ground state stabilization raises the tetramer dissociation barrier (rate limiting step in TTR amyloidogenesis) substantially, such that the tetramer cannot dissociate on a biologically relevant timescale. […] OH-PCB 18 (3.6 μM) is believed to be an impressive amyloid inhibitor because it is an excellent kinetic stabilizer of tetrameric TTR, i.e. it prevents ⅔ of a 3.6 μM TTR sample from being amyloidogenic at pH 4.4 because TTR•18 and TTR•182 are incompetent to form amyloid, the remainder of TTR (1.18 μM) forms amyloid very inefficiently because of its low concentration. The dissociation rates of the best OH-PCB inhibitors may also be slower than expected because of TTR structural annealing around the OH-PCB, but this has not yet been evaluated as carefully as required.
# [4] = target: wt transthyretin tetramer (Homo sapiens, UniProt P02766); assay: TTR tetramer dissociation in 6 M urea, Example 5; details: TTR 1.8 μM, inhibitor 3.6 μM
# From the text: An inhibitor's ability to do this is most rigorously tested by measuring its efficacy at slowing tetramer dissociation in 6 M urea, a severe denaturation stress. Thus, the rates of TTR tetramer dissociation in 6 M urea in the presence and absence of 20, 21 or 27 were compared (FIG. 9).
# TTR in whole blood = target: T3, TTR in whole blood (Homo sapiens, UniProt P02766); assay: Binding stoichiometry of OH-PCBs in whole blood, Example 4
# T3 construct: Whole blood was drawn from healthy volunteers; from tissue; host or cells: human whole blood from healthy volunteers
# From the text: Up to two PCBs can bind to the two identical thyroid hormone binding sites in a TTR tetramer. […] Several of the hydroxylated PCBs (e.g., 16 and 22) approach a binding stoichiometry of 2.
# V30M TTR = target: T4, V30M TTR (Homo sapiens, UniProt P02766, V50M); assay: Acid-mediated amyloidogenesis of TTR variant V30M, Example 3; assay type: biochemical
# T4 construct: made in house; host or cells: Escherichia coli BL21/DE3 Epicurian gold, pmmHα plasmid
# Procedure: (§1) Recombinant WT TTR and variants were expressed in BL21/DE3 Epicurian gold Escherichia coli (Stratagene) transformed with the pmmHα plasmid containing the TTR and ampicillin-resistance genes. Expression and purification were performed as described previously (Lashuel et al., Biochemistry 1999; 38: 13560–73).
# (§2) Fibril formation assay was carried out as follows. A recombinant TTR stock solution (7.2 μM) was diluted 1:1 with 100 mM acidification buffer. Citrate buffer was used when a final pH of ≦3.8 was desired; acetate buffer was employed when the pH range under evaluation was 4.2–6.0, and phosphate buffer was utilized for evaluating amyloidogenesis at pH 6.5. Samples were incubated at 37° C. for 72 h without stirring after acidification. The extent of fibril formation was probed by turbidity measurements at […].
# (§3) More than 80 TTR mutations predispose individuals to hereditary amyloidosis by sequence dependent alterations of the denaturation energy landscape.
# TTR [5] = target: T5, TTR (Homo sapiens, UniProt P02766); assay: Rate of acid-mediated (pH 4.4) amyloid fibril formation, Example 3; assay type: biochemical; design: made in house; host or cells: Escherichia coli BL21/DE3 Epicurian gold, pmmHα plasmid; details: diflunisal 5, 10, 20 and 60 μM
# Procedure: as §2
# serum TTR = target: T6, serum TTR (Homo sapiens, UniProt P02766); assay: Serum TTR tetramer stability against urea or acid denaturation (glutaraldehyde cross-linking, immunoblot), Example 3; assay type: in vivo; details: whole serum of dosed subjects, urea (0–9 M) or acid (pH 3.8–5.4)
# T6 construct: from tissue; host or cells: serum of healthy human volunteers dosed orally with diflunisal
# Procedure: Serum TTR tetramer stability towards urea denaturation was evaluated. Ten μL samples of serum were incubated (25° C.) in 90 μL of various concentrations of urea in 50 mM phosphate buffer (pH 7.0; 100 mM KCl, 1 mM EDTA, 1 mM DTT). Urea solutions were checked by refractive index to verify the concentrations prepared by weight. Glutaraldehyde cross-linking of the protein was performed by adding 10 μL of glutaraldehyde (25%). The cross-linking reaction was allowed to proceed for 4 min before it was quenched by the addition of 10 μL of NaBH4 (7% in 0.1 M NaOH). The samples were mixed with 120 μL of SDS reducing gel loading cocktail (final SDS concentration=2.5%) and boiled for 5 min.
# Serum TTR tetramer stability against acid denaturation was evaluated. Ten μL samples of serum were incubated (37° C.) in 90 μL of 100 mM acidification buffer. Citrate buffer was used when a final pH of ≦3.8 was desired; acetate buffer was employed when the pH range under evaluation was 4.2–5.4. After cross-linking, samples were analyzed by SDS-PAGE and immunoblotting as described above.
# Whole serum from the subjects was subjected to denaturation either by adding urea (0–9 M) or by adding acid (pH 3.8–5.4). […] Immunoblotting enables quantitative comparisons of the amount of folded TTR.
# [6] = Serum diflunisal levels in healthy volunteers (HPLC), Example 3; assay type: in vivo; details: both sexes, human, oral
# Procedure: (§4) Thirty healthy volunteers (25 male, 5 female) were enrolled after informed consent was given. The subjects ranged from 23 to 53 years of age (mean age, 37.6±8.8) with a mean body weight of 78.0±12.1 kg. […] This study design was approved by the Human Subjects Committee of Scripps Clinic, Scripps Green Hospital, The Scripps Research Institute, and The Scripps General Clinical Research Center.
# Serum diflunisal levels were measured. One hundred μL of serum was added to 900 μL of acetonitrile to precipitate the proteins. Following centrifugation, 100 μL of supernatant was added to 900 μL of 100 mM aqueous triethylamine, pH 11.5. After filtration, 100 μL of each sample was injected on a Keystone 3-cm C18 reverse-phase column using a 40–100% gradient of solution B over 10 min (solution A: 94.8% water/5% acetonitrile/0.2% trifluoroacetic acid; solution B: 94.8% acetonitrile/5% water/0.2% trifluoroacetic acid), controlled by a Waters 600E multisolvent delivery system.
# WT TTR [7] = target: T2, WT TTR; assay: Stagnant acid-mediated fibril formation assay (turbidity, pH 4.4, 72 h), Example 2; details: 3.6 TM TTR, 37° C.
# Procedure: Each compound was subjected to a stagnant fibril formation assay. […] The mixture was vortexed and incubated for 30 min (25° C.), at which time the pH was lowered to 4.4 with 500 TL of 200 mM acetate, 100 mM KCl and 1 mM EDTA (pH 4.2). The final 1 mL solution was vortexed and incubated for 72 h at 37° C. without agitation. After 72 h, the cuvettes were vortexed to suspend any fibrils present, and the turbidity of the suspension was measured at 350 and 400 nm using a UV-vis spectrometer. […] All assays were performed in triplicate and all compounds were assayed using wild-type TTR.
# After incubation of each mixture for 72 h (37° C.), the turbidity was measured at 350 and 400 nm using a UV-vis spectrometer. All amyloid fibril formation data was normalized to WT TTR amyloidogenesis in the absence of inhibitor, assigned to be 100% fibril formation.
# [8] = Serum chemistry and side effects in healthy volunteers given diflunisal, Example 3; assay type: in vivo, human
# From the text: as §4
# TTR [9] = target: T5, TTR; assay: Rate of urea-mediated (6.5 M) TTR tetramer dissociation by CD, Example 3; assay type: biochemical; design: made in house; host or cells: Escherichia coli BL21/DE3 Epicurian gold, pmmHα plasmid; details: 6.5 M urea; diflunisal 5, 10, 20 and 60 μM
# Procedure: Rate of TTR tetramer dissociation was measured by circular dichroism spectroscopy. The evaluation of tetramer dissociation rates was carried out using recombinant TTR (3.6 μM) samples in 6.5 M urea, a concentration in the post-transition region for tertiary structural change (Hammarstrom et al., Proc Natl Acad Sci USA 2002; 99: 16427–32). The far-UV CD spectra of TTR (210–220 nm) as a function of time was measured to evaluate the slow tetramer dissociation rate by linking it to fast tertiary structural changes.
# V122I TTR = target: T7, V122I TTR (Homo sapiens, UniProt P02766, V142I); assay: Acid-mediated amyloidogenesis of TTR variant V122I, Example 3; assay type: biochemical
# T7 construct: made in house; host or cells: Escherichia coli BL21/DE3 Epicurian gold, pmmHα plasmid
# Procedure: as §1, §2, §3
# [10] = cited from earlier work
# TTR in human serum = TTR in human serum (Homo sapiens, UniProt P02766); details: diflunisal 100 μM in serum
# Procedure: A 1:1 gel/10 mM Tris.HCl, pH 8.0/140 mM NaCl/0.025% NaN3(TSA) slurry (62.5 μL) of Sepharose was added to 500 μL of serum and incubated at 4° C. for 1 h. Following centrifugation, 400 μL of supernatant was added to 200 μL of a 1:1 gel/TSA slurry of the anti-TTR antibody-conjugated Sepharose and slowly rocked at 4° C. for 20 min. After centrifugation, the gel was washed with 1 mL of TSA/0.05% saponin (Fisher Scientific) (twice, 10 min each), and additionally with 1 mL of TSA (once, 10 min) at 4° C. […] After gentle rocking at 4° C. for 30 min, the sample was centrifuged and 145 μL of the supernatant was removed.
compound,measurement,setting,value
"3′,5′-Difluorobiphenyl-4-carboxylic acid [Compound 18]",Equivalents Bound (Plasma),[1],1.36 ± 0.21
same,efficacy as fibril inhibitor,WT TTR [2],among the highest observed to date
same,inhibitor:TTR binding stoichiometry in human blood plasma,[3],displayed the highest binding stoichiometries
same,tetramer dissociation in 6 M urea,TTR tetramer,dramatically slowed tetramer dissociation in 6 M urea
O=C(O)c1ccc2nc(-c3ccccc3)oc2c1 [Compound 21],Equivalents Bound (Plasma),[1],1.40 ± 0.22
same,effect on dissociation of TTR,[4],did not hinder the dissociation of TTR at all
same,Equivalents Bound (Blood),TTR in whole blood,1.33
O=C(O)c1cc(-c2ccc(F)cc2F)ccc1O [diflunisal],inhibition of V30M amyloidogenesis,V30M TTR,inhibits both V122I and V30M amyloidogenesis in a dose dependent fashion
same,rate of acid mediated amyloid fibril formation,TTR [5],dose dependent slowing
same,stability of serum TTR against denaturation,serum TTR,stabilizes serum TTR against denaturation stresses
same,concentration at 4 h after the 13th dose (day 8),"[6]; 125 mg twice a day, 125 mg bid",20.1 ± 7.1 µM
same,concentration at 12 h after the 13th dose (day 8),"[6]; 125 mg twice a day, 125 mg bid",6.9 ± 3 µM
same,concentration at 4 h after the 13th dose (day 8),"[6]; 250 mg twice a day, 250 mg bid",234 ± 76 µM
same,concentration at 12 h after the 13th dose (day 8),"[6]; 250 mg twice a day, 250 mg bid",146 ± 38.9 µM
same,concentration at 4 h after the 13th dose (day 8),"[6]; 500 mg twice a day, 500 mg bid",517 ± 79.5 µM
same,concentration at 12 h after the 13th dose (day 8),"[6]; 500 mg twice a day, 500 mg bid",422 ± 78.1 µM
same,reduction of TTR amyloidogenesis,WT TTR [7]; 3.6 TM diflunisal,63%
same,reduction of TTR amyloidogenesis,WT TTR [7]; 7.2 TM diflunisal,97%
same,level of BUN,[8]; 250 mg bid group,increased slightly
same,serum level of albumin,[8]; 250 mg bid group,decreased moderately
same,level of BUN,[8]; 500 mg bid group,increased slightly
same,level of creatinine,[8]; 500 mg bid group,increased slightly
same,serum level of albumin,[8]; 500 mg bid group,decreased significantly
same,side effects,"[8]; 125, 250 or 500 mg bid for 7 days, during or after the study",No obvious side effects were observed
same,rate of urea-mediated dissociation,TTR [9],dose dependent slowing
same,inhibition of V122I amyloidogenesis,V122I TTR,inhibits both V122I and V30M amyloidogenesis in a dose dependent fashion
same,diflunisal concentration in blood,[10]; 4 h after a single 500 mg dose,> 300 µM
same,diflunisal concentration in blood,[10]; 20 h after a single 500 mg dose,exceed 30 μM
same,blood-brain barrier penetration,[10]; in vivo,cannot cross the blood-brain barrier
same,half-life,[10]; in vivo,8 to 10 h
same,sustained plasma concentration,"[10]; orally administered, 250 mg twice daily",exceeding 100 TM
same,protein bound,[10]; serum,Greater than 99%
same,binding stoichiometry in subjects,TTR in human serum,0.8–1
